Among the test systems are HT29 colon; OVCAR-3 ovarian; NCI-H23 lung; K-562 leukemia; A498 renal; HOP-92 NSCLC; HCT-116 colon; MCF7 breast; OVCAR-8 ovarian; MALME-3M melanoma.
Experiment in all cases: NCI tumour cell line growth inhibition, 48 h

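Briefly, cells in 96-well plates were exposed to five compound concentrations for 48 h, and endpoints were estimated by linear interpolation. GI50 is the concentration that inhibits growth by half. TGI: concentration producing complete growth inhibition.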

On to `Nc1nc(-c2ccccc2)cc(-c2ccc(Cl)cc2)c1-c1nc2ccccc2o1`, for which the GI50 in the experiment on HT29 colon is 12 µM; in the experiment with OVCAR-3 ovarian, 15.7 µM; in the experiment with NCI-H23 lung it was 23.5 µM; in the experiment with K-562 leukemia, 10.9 µM; with A498 renal it was 16.7 µM; in the experiment on HOP-92 NSCLC, 1.7 µM. For the same compound, the GI50 in the experiment on HCT-116 colon was 7.41 µM; with MCF7 breast, 2.31 µM; in the experiment on OVCAR-8 ovarian, 18.7 µM; in the experiment on MALME-3M melanoma, 19.2 µM. The TGI is 31.7 µM in the experiment with HT29 colon; 30.8 µM in the experiment with OVCAR-3 ovarian; more than 100 µM in the experiment with NCI-H23 lung; 29.3 µM in the experiment with K-562 leukemia; 30.3 µM in the experiment with A498 renal; 6.83 µM with HOP-92 NSCLC. The TGI in the experiment on HCT-116 colon came to 20.2 µM; in the experiment on MCF7 breast it was 16.2 µM; in the experiment on OVCAR-8 ovarian, 61.2 µM; in the experiment with MALME-3M melanoma it was 35.3 µM.
For the compound `O=c1ccnc(SCc2ccc(Cl)cc2)[nH]1`, the TGI with HT29 colon, in the experiment with OVCAR-3 ovarian, with NCI-H23 lung, in the experiment with K-562 leukemia, in the experiment on A498 renal and with HOP-92 NSCLC was more than 100 µM in each case. The TGI in the experiment with HCT-116 colon, in the experiment with MCF7 breast, with OVCAR-8 ovarian and in the experiment with MALME-3M melanoma was more than 100 µM throughout.
Take `Oc1c(I)cc(I)cc1CN(Cc1ccccn1)Cc1ccccn1`: the GI50 was 3.93 µM in the experiment on HT29 colon; 1.83 µM in the experiment with OVCAR-3 ovarian; 2.48 µM in the experiment on NCI-H23 lung; 0.548 µM in the experiment on K-562 leukemia; 1.29 µM in the experiment on A498 renal; 1.18 µM in the experiment with HOP-92 NSCLC. Also, the GI50 in the experiment on HCT-116 colon was 0.666 µM; in the experiment with MCF7 breast, 0.548 µM; in the experiment on OVCAR-8 ovarian, 0.547 µM; with MALME-3M melanoma, 1.84 µM. For the same compound, the TGI with HT29 colon came out at 18 µM; in the experiment on OVCAR-3 ovarian, 15.1 µM; with NCI-H23 lung, 40.6 µM; in the experiment on K-562 leukemia it was 14.6 µM; in the experiment on A498 renal, 6.19 µM; with HOP-92 NSCLC, 9.04 µM. Further, the TGI with HCT-116 colon was 12.4 µM; in the experiment with MCF7 breast it was more than 39.9 µM; in the experiment on OVCAR-8 ovarian, 23.2 µM; with MALME-3M melanoma it was 9.2 µM.
As to `C=C(C)[C@@H]1CC[C@]2(C(N)=O)CC[C@]3(C)[C@H](CC[C@@H]4[C@@]5(C)C/C(=C/c6cccnc6)[C@H](O)C(C)(C)[C@@H]5CC[C@]43C)[C@@H]12`, the GI50 was 3.68 µM in the experiment with HT29 colon; 5.02 µM with OVCAR-3 ovarian; 4.96 µM in the experiment on NCI-H23 lung; 3.4 µM in the experiment with K-562 leukemia; 10.4 µM in the experiment with A498 renal; 6.37 µM with HOP-92 NSCLC. Besides, the GI50 is 2.22 µM with HCT-116 colon, 2.68 µM in the experiment with MCF7 breast, 4.54 µM with OVCAR-8 ovarian and 4.91 µM in the experiment with MALME-3M melanoma. The TGI with HT29 colon, with OVCAR-3 ovarian, with NCI-H23 lung, with K-562 leukemia, in the experiment on A498 renal and in the experiment on HOP-92 NSCLC was more than 100 µM in each case. The TGI in the experiment with HCT-116 colon, with MCF7 breast, in the experiment on OVCAR-8 ovarian and in the experiment with MALME-3M melanoma was more than 100 µM each time.
On to `Cc1nn(C)c2cc(N(C)c3ccnc(Nc4cccc(S(N)(=O)=O)c4)n3)ccc12`, for which the GI50 was 6.1 µM in the experiment on HT29 colon; 8.19 µM in the experiment with OVCAR-3 ovarian; 6.6 µM in the experiment with NCI-H23 lung; 2.13 µM in the experiment with K-562 leukemia; 5.27 µM in the experiment on A498 renal; 4.39 µM with HOP-92 NSCLC. The GI50 was 7.43 µM in the experiment on HCT-116 colon, 7.11 µM with MCF7 breast, 7.15 µM in the experiment with OVCAR-8 ovarian and 4.72 µM with MALME-3M melanoma. The TGI in the experiment with HT29 colon was more than 25 µM; in the experiment on OVCAR-3 ovarian, more than 25 µM; with NCI-H23 lung, more than 25 µM; with K-562 leukemia, more than 25 µM; in the experiment on A498 renal, 17.5 µM; with HOP-92 NSCLC, more than 25 µM. For the same compound, the TGI in the experiment on HCT-116 colon is more than 25 µM; in the experiment on MCF7 breast, more than 25 µM; in the experiment with OVCAR-8 ovarian, more than 25 µM; with MALME-3M melanoma, 21.8 µM.
As to `N#CSc1ccc(S(N)(=O)=O)cc1`, the TGI in the experiment on HT29 colon, with OVCAR-3 ovarian, in the experiment on NCI-H23 lung, with K-562 leukemia, in the experiment with A498 renal and in the experiment with HOP-92 NSCLC was more than 100 µM each time. Also, the TGI in the experiment with HCT-116 colon, with MCF7 breast, in the experiment on OVCAR-8 ovarian and in the experiment with MALME-3M melanoma was more than 100 µM each time.
With `CC[CH2][Sn]([CH2]CC)([O]C(=O)Cc1ccc(F)cc1)[O][Sn]([CH2]CC)([CH2]CC)[O]C(=O)Cc1ccc(F)cc1`, the GI50 with HT29 colon is 0.728 µM; in the experiment on OVCAR-3 ovarian it was 0.431 µM; in the experiment on NCI-H23 lung, 0.0539 µM; in the experiment on K-562 leukemia, 0.0266 µM; in the experiment on A498 renal, 0.149 µM; in the experiment with HOP-92 NSCLC, 0.174 µM. The GI50 with HCT-116 colon is 0.218 µM; in the experiment with MCF7 breast it was 0.105 µM; in the experiment on OVCAR-8 ovarian, 0.278 µM; with MALME-3M melanoma it was 0.102 µM. In addition, the TGI with HT29 colon was determined as 2.02 µM; in the experiment with OVCAR-3 ovarian, 1.27 µM; in the experiment on NCI-H23 lung, 0.276 µM; in the experiment with K-562 leukemia it was 1.81 µM; in the experiment on A498 renal, 0.469 µM; with HOP-92 NSCLC, 0.522 µM. Further, the TGI with HCT-116 colon stood at 0.796 µM; in the experiment with MCF7 breast, 1.02 µM; in the experiment on OVCAR-8 ovarian it was 1.41 µM; in the experiment with MALME-3M melanoma, 0.291 µM.
Turning to `COc1ccc2nc(-c3cc4c([nH]c5ccccc54)c(-c4ccc(F)c(F)c4)n3)[nH]c2c1`, the GI50 with HT29 colon was 3.74 µM; in the experiment on OVCAR-3 ovarian it was 1.94 µM; with NCI-H23 lung it was 6.56 µM; with K-562 leukemia, 3.35 µM; in the experiment on A498 renal it was 9.84 µM; with HOP-92 NSCLC, 5.96 µM. Besides, the GI50 in the experiment with HCT-116 colon is 2.05 µM; with MCF7 breast, 3.23 µM; in the experiment on OVCAR-8 ovarian, 3.08 µM; with MALME-3M melanoma, 16.3 µM. The TGI with HT29 colon is 13 µM; with OVCAR-3 ovarian, 4.12 µM; in the experiment with NCI-H23 lung it was 27.5 µM; with K-562 leukemia it was 24.4 µM; in the experiment with A498 renal, 56.6 µM; in the experiment on HOP-92 NSCLC, 29.5 µM. Moreover, the TGI in the experiment with HCT-116 colon amounted to 4.11 µM; in the experiment on MCF7 breast it was 17.1 µM; in the experiment with OVCAR-8 ovarian, 18.1 µM; in the experiment with MALME-3M melanoma, 34.3 µM.
As for `Nc1nc(-c2cccs2)cs1`, the TGI with HT29 colon, in the experiment on OVCAR-3 ovarian, in the experiment on NCI-H23 lung, in the experiment on K-562 leukemia, in the experiment on A498 renal and in the experiment on HOP-92 NSCLC was more than 100 µM throughout. For the same compound, the TGI in the experiment on HCT-116 colon, in the experiment on MCF7 breast, in the experiment on OVCAR-8 ovarian and in the experiment on MALME-3M melanoma was more than 100 µM each time.
`COc1ccc(C2CC(=O)c3c(O)c(OC)c(OC)c(OC)c3O2)cc1O` (stereo unspecified): the GI50 in the experiment with HT29 colon was 3.4 µM; in the experiment on OVCAR-3 ovarian, 0.0627 µM; with NCI-H23 lung, 0.547 µM; in the experiment on K-562 leukemia, 0.0365 µM; with A498 renal, 2.34 µM; in the experiment on HOP-92 NSCLC, 0.518 µM. In addition, the GI50 is 0.103 µM in the experiment with HCT-116 colon, 0.124 µM in the experiment on MCF7 breast, 0.175 µM with OVCAR-8 ovarian and 32.8 µM in the experiment on MALME-3M melanoma. In addition, the TGI in the experiment on HT29 colon is more than 64.5 µM; in the experiment on OVCAR-3 ovarian it was 0.749 µM; with NCI-H23 lung, more than 100 µM; in the experiment on K-562 leukemia it was more than 100 µM; in the experiment on A498 renal, 33.2 µM; in the experiment on HOP-92 NSCLC, 82.4 µM. Moreover, the TGI in the experiment on HCT-116 colon is more than 100 µM; in the experiment on MCF7 breast, more than 100 µM; in the experiment with OVCAR-8 ovarian, more than 57.1 µM; with MALME-3M melanoma, more than 100 µM.
Regarding `C=C(CN(C)C)C(=O)c1ccc(Oc2ccccc2)cc1`, the TGI in the experiment on HT29 colon was 34.3 µM; in the experiment with OVCAR-3 ovarian, 13.2 µM; in the experiment on NCI-H23 lung, 24.9 µM; with K-562 leukemia, 12.5 µM; in the experiment on A498 renal it was 42.1 µM; in the experiment on HOP-92 NSCLC, more than 25.5 µM. The TGI in the experiment with HCT-116 colon is 5.32 µM; in the experiment with MCF7 breast, 15.6 µM; in the experiment with OVCAR-8 ovarian it was 25.3 µM; in the experiment on MALME-3M melanoma it was 9.18 µM.
As to `Fc1cccc(-c2[nH]nc3nc(Nc4cccnc4)sc23)c1`, the GI50 was 1.68 µM in the experiment with OVCAR-3 ovarian; 23 µM with NCI-H23 lung; 0.421 µM in the experiment with K-562 leukemia; more than 100 µM in the experiment on A498 renal; more than 100 µM in the experiment with HOP-92 NSCLC; 0.595 µM in the experiment on HCT-116 colon. The values for the GI50 with MCF7 breast, in the experiment with OVCAR-8 ovarian and in the experiment with MALME-3M melanoma were 0.708 µM, 15.7 µM and 39.8 µM, respectively. For the same compound, the TGI in the experiment with OVCAR-3 ovarian is 13.5 µM; in the experiment on NCI-H23 lung it was more than 100 µM; in the experiment with K-562 leukemia it was more than 100 µM; with A498 renal, more than 100 µM; in the experiment on HOP-92 NSCLC, more than 100 µM; in the experiment on HCT-116 colon, 51.1 µM. For the same compound, the TGI in the experiment with MCF7 breast, in the experiment with OVCAR-8 ovarian and with MALME-3M melanoma was more than 100 µM throughout.
On to `COC1=C(OC)[C@]2(OC)c3c(O)c(OC)c4c(c3O[C@@]23O[C@@H](c2ccccc2)CC=C3C1=O)[C@@H](O)C[C@H](c1ccccc1)O4`, for which the GI50 in the experiment on HT29 colon was 0.224 µM; in the experiment on OVCAR-3 ovarian it was 0.204 µM; with K-562 leukemia it was 0.0972 µM; in the experiment on A498 renal, 0.348 µM; in the experiment with HOP-92 NSCLC, 0.244 µM; in the experiment on HCT-116 colon it was 0.183 µM. For the same compound, the GI50 was 0.321 µM with MCF7 breast, 0.181 µM in the experiment on OVCAR-8 ovarian and 0.377 µM with MALME-3M melanoma. For the same compound, the TGI in the experiment with HT29 colon amounted to 0.565 µM; in the experiment on OVCAR-3 ovarian, 0.517 µM; in the experiment on K-562 leukemia it was 0.742 µM; in the experiment with A498 renal, 2.35 µM; in the experiment on HOP-92 NSCLC, 0.641 µM; with HCT-116 colon, 0.38 µM. The TGI worked out at 1.67 µM in the experiment on MCF7 breast, 0.35 µM in the experiment with OVCAR-8 ovarian and 1.33 µM with MALME-3M melanoma.

Source of the values: PubChem BioAssay (NCI).
